This note sets out measurements from ChEMBL document CHEMBL4837246 (J Med Chem, 2021).

Structures are written as SMILES.

A short description of series [1]: in vivo. As to conditions: mouse, iv, 0.3 mg/kg.
Series [2] can be described thus: in vivo. As to conditions: mouse, iv, 0.3 mg/kg. This is another data set of the same source.
Series [3] can be described thus: in vivo. To be noted: Wistar, rat, po, 0.6 mg/kg.
A short description of series [4]: in vivo. As to conditions: mouse, iv, 0.3 mg/kg. This is another data set of the same source.
A short description of series [5]: in vivo. As to conditions: Wistar, rat, iv, 0.3 mg/kg.
The nature of series [6]: in vivo. As to conditions: Wistar, rat, iv, 0.3 mg/kg. This is another data set of the same source.
Series [7] can be described thus: in vivo. As to conditions: Wistar, rat, po, 0.6 mg/kg. The source holds these as a separate data set.
Series [8] is described as follows: in vivo. As to conditions: Wistar, rat, iv, 0.3 mg/kg. This is another data set of the same source.

As to `FC(F)c1cncc(-c2ccc3ncc4nnc(C5=CCCOCC5)n4c3c2)c1`, the clearance at 24 h in “in vivo [1]” is 135 mL/min/kg; in the series “in vivo [8]”, 36.7 mL/min/kg. Also, the half-life at 24 h in the series “in vivo [2]” was 40.8 min; in the series “in vivo [6]”, 50.4 min; in “in vivo [7]”, 240 min. The bioavailability at 24 h in “in vivo [3]” is 22%. Moreover, the volume of distribution (Vd) at 24 h stood at 3.7 L/kg in the series “in vivo [4]” and 1.8 L/kg in the series “in vivo [5]”.

One may read the clearance as the rate of elimination divided by the concentration. As a reminder, the half-life is the time in which the quantity being followed falls by half. For orientation: bioavailability means dose-corrected exposure relative to a reference, in per cent. In general, Vd refers to the apparent volume that relates the amount in the body to the concentration in plasma or blood. A lower Vd goes with confinement near the circulation.
